In US20250241931A1, “METHODS OF TREATING A SUBJECT HAVING CLINICALLY SIGNIFICANT SIGNS AND SYMPTOMS ASSOCIATED WITH BLOOD CELL DIFFERENTIATION” (FOGHORN THERAPEUTICS INC., priority 2022, published 2025):

Tested on: subjects with advanced hematologic malignancies (R/R AML or MDS)
Experiment: ascending multiple dose escalation clinical trial (safety and tolerability, oral administration)
Type: in vivo, human
Conditions: ongoing study
Description: An ascending multiple dose escalation clinical trial of the compound shown below is conducted. It is primarily intended to evaluate the safety and tolerability of the compound shown below when administered orally to subjects with advanced hematologic malignancies, specifically relapsed or refractory acute myeloid leukemia (R/R AML) or myelodysplastic syndrome (MDS).
In this ongoing study, clinically significant signs and symptoms associated with blood cell differentiation have been reported for one of 21 subjects with acute myeloid leukemia treated with the compound shown above. This occurred approximately 7-14 days into the treatment with the compound shown above.

## COC[C@H](NC(=O)c1ccn(S(C)(=O)=O)c1)C(=O)Nc1nc(-c2cccc(N3C[C@@H](C)O[C@@H](C)C3)n2)cs1
Subjects with acute myeloid leukemia treated orally with the compound
  subjects with clinically significant signs and symptoms associated with blood cell differentiation: one of 21
The one affected subject with acute myeloid leukemia
  time of occurrence of the clinically significant signs and symptoms associated with blood cell differentiation, into the treatment: 7 to 14 days
